Source: patent US20190248834A1, “ENDOMORPHIN-2, TETRAPEPTIDE DERIVATIVES THEREOF, AND USES THEREOF” (priority 2016, published 2019)
Non-standard residues stand in square brackets, D forms with d. pGlu = O=C1CC[C@@H](C(=O)O)N1

How the values were obtained:
Format in all cases: in vivo, human
[1] = tested on: sub-acute pain of left wrist; test: Example 10: analgesic effect on wrist pain, topical
Protocol: A subject had sub-acute pain of their left wrist, which they twisted while lifting a child.
The subject topically applied an anhydrous composition containing 0.7% (w/v) N-Ac-Tyr-Pro-Phe-Phe-NH2 (SEQ ID NO: 23) in EP73, formulated as described in Example 2, before bedtime. The next morning, about 70% relief of pain was observed. The subject topically re-applied the same composition under plastic film wrap for 2 hours, and the wrist pain was completely eradicated. The subject was free of any wrist pain and the improvement was 100% as judged by clinical evaluation.

[2] = tested on: chronic knee pain; test: Example 46: analgesic effect on chronic knee pain from post-trauma, topical; details: 1% (w/v) in WEP442, topical
Excerpt: Onset of pain occurred in adulthood […], worsening to a level that compromised their performance as a hospital nurse.

[3] = tested on: neck and shoulder pain; test: Example 16: analgesic effect on neck and shoulder pain, topical; details: 0.5% (w/v) in WEP442, topical
Protocol: The subject could not move their neck without having a high level of pain and discomfort. The subject topically applied a composition containing 0.5% (w/v) N-Ac-Tyr-Pro-Phe-Phe-NH2(SEQ ID NO: 23) in WEP442 to the affected area of the skin. […] The pain relief lasted for more than 2 hours.

[4] = tested on: psoriatic arthritis of the fingers; test: Example 79: analgesic effect on psoriatic arthritis, topical; details: 0.5% (w/v) in WEP442, topical once daily
Excerpt: A subject, presented with psoriatic arthritis of the fingers that was particularly painful in the right index finger joint and proximal joint of the left thumb.

[5] = tested on: TMJ syndrome pain; test: Example 41: analgesic effect on TMJ pain, topical; details: 0.5% (w/v) in WEP442, topical
Excerpt: The same subject, also suffered pain from TMJ syndrome involving the left side joint for about 6 years. Attempts to alleviate the pain, e.g. cushioning mouth pieces worn during the night, failed. […] Increasing longer periods of relief have occurred over 5-6 weeks. They have reported that there was no more pain in the affected joint over a period of about one month.

[6] = tested on: psoriatic arthritis pain, fingers and wrists; test: Example 48: comparative analgesic efficacy, psoriatic arthritis pain of fingers and wrists, topical; details: 1% (w/v) in WEP442, topical
Excerpt: […] Treatment of the subject over the years included methotrexate and other antimetabolites, and in recent years drugs known as biologic medications. While these agents have provided intervals of relief, none has provided a lasting benefit. Over the past decade, painful arthritis developed in both wrists and in numerous joints of the fingers. Four related tetrapeptide derivatives, 1% (w/v) solution compositions in vehicle WEP442, one at a time, were topically applied to the fingers and wrists of both hands. […] Efficacy was rated by the subject as 4+. • (B) N-Ac-Tyr-Pro-Phe-Phe-NHNH2 (SEQ ID NO: 31) provided slow relief of pain, i.e. within about 10 minutes. […] Analgesic efficacy was judged by the subject to be 0 to 1+.

[7] = tested on: knee pain, lateral meniscus; test: Example 58: analgesic effect on knee pain due to injured lateral meniscus, topical; details: 1% (w/v) in WEP442, topical
Excerpt: A subject had knee pain at the site of the lateral meniscus of the right knee, secondary to repeated trauma in the course of their work as a house builder. They evaluated two (2) tetrapeptide derivatives for efficacy in relieving this pain, including N-Ac-Tyr-Pro-Phe-Phe-NH2 (SEQ ID NO: 23) and N-Pg-Tyr-Pro-Phe-Phe-NH2 (SEQ ID NO: 44), both as a 1% (w/v) solution composition in WEP442. One solution composition was topically applied during the course of a day; and the other solution composition was topically applied during the course of the following day. The evaluation continued over a period of 8 days in this schedule.

[8] = tested on: severe pain on the left hip; test: Example 89: analgesic effect on hip pain, topical; details: 1% (w/v) in WEP442, topical
Excerpt: A subject had severe lumber stenosis (lower back arthritis) for about 3 years caused by a fall from a ladder 7 years earlier. The subject had been pain free from lower back arthritis due to weekly acupuncture treatment, usually at 10 AM every Tuesday. On one Friday evening, the subject suddenly developed severe pain on the left hip and the pain persisted.

[9] = tested on: discomfort of hands; test: Example 63: analgesic effect on wrist and hand pain, topical; details: 0.5% (w/v) in WEP442, topical
Excerpt: A person hairdresser, after several hours of styling hair, experienced substantial discomfort on their hands that interfered with further pursuit of their work.

[10] = tested on: headache; test: Example 44: analgesic effect on headache, topical
Excerpt: A subject, experienced a headache that began on the right temporofrontal area. Within about a half hour the headache pain area expanded to include the left temporofrontal area and both orbital areas. The intensity of pain increased simultaneously to a degree that caused them to remove themself from their sedentary occupation. Available to them was a composition containing 1% (w/v) of N-Pg-Tyr-Pro-Phe-Phe-NH2 (SEQ ID NO: 44) in WEP442, which they topically applied to all the above areas, keeping their eyes closed until the lids dried. Pain relief was detected after about 5 minutes, at which time a second application of the solution was made. Within another 5 minutes, pain relief was substantial, allowing them to return to their occupation.

[11] = tested on: knee pain, bulging meniscus; test: Example 65: analgesic effect on pain from bulging sub-patellar meniscus, topical; details: 0.6% (w/v) in WEP442, topical
Excerpt: A landscape worker slipped on the grass and twisted their right knee, which became too painful for them to walk on without physical support. […] Surgical corrective procedures were scheduled for 2 weeks later. In the meantime, topical applications of the above solution as needed allowed them to move about with no discomfort.

[12] = tested on: very severe osteoarthritis of the knees; test: Example 45: analgesic effect on osteoarthritic knees, topical lotion; details: 1% (w/w) lotion
Protocol: One gram of the tetrapeptide derivative N-Pg-Tyr-Pro-Phe-Phe-NH2(SEQ ID NO: 44) was dissolved in propylene glycol (33 ml) and diisopropyl adipate (33 ml), and the resultant solution was mixed with an oil-in-water emulsion (33 g) to yield a light lotion containing 1% (w/w) of […] (SEQ ID NO: 44). This lotion was generously applied topically to the knees and lower legs of a subject, having very severe osteoarthritis of the knees for many years. After topical application of the lotion to the lower legs and knees, plastic film was applied to cover the treated areas. The plastic film was removed 8 hours later. […] Pain began to return after about 4 days.

For `CC(=O)N[C@@H](Cc1ccc(O)cc1)C(=O)N1CCC[C@H]1C(=O)N[C@@H](Cc1ccccc1)C(=O)N[C@@H](Cc1ccccc1)C(N)=O` [N-Ac-Tyr-Pro-Phe-Phe-NH2], the “improvement by clinical evaluation” value ([1]; 0.7% (w/v) in EP73, re-applied under plastic film wrap for 2 hours) was 100%, the relief of pain ([1]; 0.7% (w/v) in EP73, topical before bedtime, next morning) was “about 70%” and the “duration of absence of pain” value [2] was 8 h. The pain relief [2] was “complete absence of pain”, the “duration of pain relief” value [3] was “more than 2 hours” and the “relief of pain in shoulder and neck” value [3] was “approximately 90%”. For the same compound, the “time to pain relief” value [3] was ≤ 2 min, the “duration of pain relief” value [4] was 8 h and the pain relief [4] was “complete relief of pain”. The “duration of pain relief” value [5] was “more than 8 hours”, the pain relief [5] was “rapidly and completely alleviated pain” and the pain relief [6] was “rapid complete relief of pain”. The “duration of pain relief” value [7] was “about 4 hours”, the pain relief [7] was “complete relief of pain” and the analgesic effect grade [8] was 4+ (4+ (90-100%): complete relief or eradication of pain for more than 4 hours). For the same compound, the pain relief [8] was “the pain disappeared”, the “time to pain relief” value [8] was “about 2 minutes” and the “time without return of pain” value [8] was > 12 h.

With “N-Pg-Tyr-Pro-Phe-Phe-NH2 ([pGlu]YPFF-NH2; SMILES NC(=O)[C@H](Cc1ccccc1)NC(=O)[C@H](Cc1ccccc1)NC(=O)[C@@H]1CCCN1C(=O)[C@H](Cc1ccc(O)cc1)NC(=O)[C@@H]1CCC(=O)N1)” the relief of discomfort [9] was “complete relief”, the pain relief ([10]; 1% (w/v) in WEP442, after second application) was “Total relief of pain” and the “time to detected pain relief” value ([10]; 1% (w/v) in WEP442, first topical application) was “about 5 minutes”. The recurrence ([10]; 1% (w/v) in WEP442, topical) was “no recurrence of pain”, the “duration of pain relief” value [11] was “lasted throughout the working day” and the pain relief [11] was “complete relief of pain”. For the same compound, the “time to pain relief” value [11] was 3 to 4 min, the “time to return of pain” value [12] was “about 4 days” and the pain relief ([12]; under plastic film 8 hours, daily for 3 days) was “pain had subsided almost completely”. For the same compound, the pain relief [6] was “rapid relief of pain”, the “duration of pain relief” value [7] was “about 4 hours” and the pain relief [7] was “complete relief of pain”.
